# From paper PMC11167047 (Cell Death Discovery, 2024)
# Key:
# Assay in all cases: kinome screen (33PanQinase)
# Format in all cases: biochemical
# TTBK2 = target: T1, TTBK2 (Homo sapiens, UniProt Q6IQ55)
# T1 construct: purchased Reaction Biology Europe GmbH (formerly ProQinase)
# Method: (§1) The Kinome Screening was performed by Reaction Biology Europe GmbH (http://reactionbiology.com; Freiburg i. Br., Germany).
# HCK = target: T2, HCK (Homo sapiens, UniProt P08631)
# T2 construct: purchased Reaction Biology Europe GmbH (formerly ProQinase)
# Method: as §1
# CAMK2A = target: T3, CAMK2A (Homo sapiens, UniProt Q9UQM7)
# T3 construct: purchased Reaction Biology Europe GmbH (formerly ProQinase)
# Method: as §1
# MAP4K5 = target: T4, MAP4K5 (Homo sapiens, UniProt Q9Y4K4)
# T4 construct: purchased Reaction Biology Europe GmbH (formerly ProQinase)
# Method: as §1
# PKN3 = target: T5, PKN3 (Homo sapiens, UniProt Q6P5Z2)
# T5 construct: purchased Reaction Biology Europe GmbH (formerly ProQinase)
# Method: as §1
# MAP3K9 = target: T6, MAP3K9 (Homo sapiens, UniProt P80192)
# T6 construct: purchased Reaction Biology Europe GmbH (formerly ProQinase)
# Method: as §1
# MEK5 = target: T7, MEK5 (Homo sapiens, UniProt Q13163)
# T7 construct: purchased Reaction Biology Europe GmbH (formerly ProQinase)
# T7 sequence (Q13163 1-448): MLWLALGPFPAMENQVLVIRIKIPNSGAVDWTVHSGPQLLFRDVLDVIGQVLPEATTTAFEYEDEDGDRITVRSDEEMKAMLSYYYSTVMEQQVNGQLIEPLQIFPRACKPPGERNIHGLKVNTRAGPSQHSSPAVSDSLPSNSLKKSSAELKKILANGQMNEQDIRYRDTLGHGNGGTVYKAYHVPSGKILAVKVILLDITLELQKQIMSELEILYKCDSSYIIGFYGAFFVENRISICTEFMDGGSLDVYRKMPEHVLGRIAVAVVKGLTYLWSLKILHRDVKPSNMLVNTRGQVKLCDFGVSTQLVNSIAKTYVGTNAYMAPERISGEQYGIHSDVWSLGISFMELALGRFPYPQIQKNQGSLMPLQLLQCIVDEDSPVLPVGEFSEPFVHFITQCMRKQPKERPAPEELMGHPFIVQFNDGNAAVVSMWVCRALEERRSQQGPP
# Method: as §1
# STK33 = target: T8, STK33 (Homo sapiens, UniProt Q9BYT3)
# T8 construct: purchased Reaction Biology Europe GmbH (formerly ProQinase)
# Method: as §1
# CDK1/CycE1 = target: T9, CDK1/CycE1 (Homo sapiens, UniProt P06493)
# T9 construct: purchased Reaction Biology Europe GmbH (formerly ProQinase)
# Method: as §1
# BRSK2 = target: T10, BRSK2 (Homo sapiens, UniProt Q8IWQ3)
# T10 construct: purchased Reaction Biology Europe GmbH (formerly ProQinase)
# T10 sequence (Q8IWQ3 1-736): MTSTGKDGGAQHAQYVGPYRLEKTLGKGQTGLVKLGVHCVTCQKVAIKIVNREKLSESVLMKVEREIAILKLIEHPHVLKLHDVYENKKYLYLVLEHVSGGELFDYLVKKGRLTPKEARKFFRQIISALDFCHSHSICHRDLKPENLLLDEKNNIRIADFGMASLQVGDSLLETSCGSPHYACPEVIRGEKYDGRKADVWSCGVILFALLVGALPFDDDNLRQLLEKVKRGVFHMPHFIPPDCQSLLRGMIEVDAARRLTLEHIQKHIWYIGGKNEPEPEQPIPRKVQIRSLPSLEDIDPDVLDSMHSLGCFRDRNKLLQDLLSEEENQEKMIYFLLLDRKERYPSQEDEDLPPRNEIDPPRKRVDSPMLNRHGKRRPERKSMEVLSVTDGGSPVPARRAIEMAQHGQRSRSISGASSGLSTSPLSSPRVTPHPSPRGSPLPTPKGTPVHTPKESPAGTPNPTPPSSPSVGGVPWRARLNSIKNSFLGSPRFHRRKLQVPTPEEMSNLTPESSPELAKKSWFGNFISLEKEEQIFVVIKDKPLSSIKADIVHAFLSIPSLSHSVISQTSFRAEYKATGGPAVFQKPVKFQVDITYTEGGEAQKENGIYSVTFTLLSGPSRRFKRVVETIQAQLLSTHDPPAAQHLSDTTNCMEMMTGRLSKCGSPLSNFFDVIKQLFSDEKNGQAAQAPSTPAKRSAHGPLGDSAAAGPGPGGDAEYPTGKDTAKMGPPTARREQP
# Method: as §1
# EEF2K = target: T11, EEF2K (Homo sapiens, UniProt O00418)
# T11 construct: purchased Reaction Biology Europe GmbH (formerly ProQinase)
# T11 sequence (O00418 1-725): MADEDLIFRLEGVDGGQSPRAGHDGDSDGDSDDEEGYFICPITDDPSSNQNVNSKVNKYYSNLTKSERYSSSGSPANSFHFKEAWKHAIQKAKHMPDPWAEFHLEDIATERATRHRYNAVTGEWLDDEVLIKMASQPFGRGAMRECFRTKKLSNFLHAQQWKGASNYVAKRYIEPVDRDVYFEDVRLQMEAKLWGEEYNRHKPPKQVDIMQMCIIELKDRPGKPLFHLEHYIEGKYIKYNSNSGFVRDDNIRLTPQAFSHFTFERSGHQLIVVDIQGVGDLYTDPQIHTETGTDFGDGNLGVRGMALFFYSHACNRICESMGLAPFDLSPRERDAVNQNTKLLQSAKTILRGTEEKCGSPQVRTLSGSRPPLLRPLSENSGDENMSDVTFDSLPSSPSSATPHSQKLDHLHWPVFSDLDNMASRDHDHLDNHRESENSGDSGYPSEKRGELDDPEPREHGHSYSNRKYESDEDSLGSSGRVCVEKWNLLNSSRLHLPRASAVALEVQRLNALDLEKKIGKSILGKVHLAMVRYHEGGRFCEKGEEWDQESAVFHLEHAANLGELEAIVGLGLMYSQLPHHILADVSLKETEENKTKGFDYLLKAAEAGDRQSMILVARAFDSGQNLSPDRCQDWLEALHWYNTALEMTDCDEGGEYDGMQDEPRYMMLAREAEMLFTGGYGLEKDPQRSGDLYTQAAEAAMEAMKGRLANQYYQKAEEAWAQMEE
# Method: as §1
# T3 sequence (Q9UQM7 whole entry): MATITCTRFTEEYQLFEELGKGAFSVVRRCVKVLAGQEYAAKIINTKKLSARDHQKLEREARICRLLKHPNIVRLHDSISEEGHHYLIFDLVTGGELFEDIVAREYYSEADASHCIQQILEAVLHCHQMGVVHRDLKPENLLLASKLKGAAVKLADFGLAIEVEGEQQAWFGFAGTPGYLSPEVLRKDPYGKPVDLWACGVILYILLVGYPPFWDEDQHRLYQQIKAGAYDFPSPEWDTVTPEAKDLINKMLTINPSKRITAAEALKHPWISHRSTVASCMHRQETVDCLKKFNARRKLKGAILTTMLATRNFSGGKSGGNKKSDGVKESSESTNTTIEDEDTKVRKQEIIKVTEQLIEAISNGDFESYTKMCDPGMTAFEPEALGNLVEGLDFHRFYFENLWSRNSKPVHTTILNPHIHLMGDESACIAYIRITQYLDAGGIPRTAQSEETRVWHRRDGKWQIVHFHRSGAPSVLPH
# T4 sequence (Q9Y4K4 whole entry): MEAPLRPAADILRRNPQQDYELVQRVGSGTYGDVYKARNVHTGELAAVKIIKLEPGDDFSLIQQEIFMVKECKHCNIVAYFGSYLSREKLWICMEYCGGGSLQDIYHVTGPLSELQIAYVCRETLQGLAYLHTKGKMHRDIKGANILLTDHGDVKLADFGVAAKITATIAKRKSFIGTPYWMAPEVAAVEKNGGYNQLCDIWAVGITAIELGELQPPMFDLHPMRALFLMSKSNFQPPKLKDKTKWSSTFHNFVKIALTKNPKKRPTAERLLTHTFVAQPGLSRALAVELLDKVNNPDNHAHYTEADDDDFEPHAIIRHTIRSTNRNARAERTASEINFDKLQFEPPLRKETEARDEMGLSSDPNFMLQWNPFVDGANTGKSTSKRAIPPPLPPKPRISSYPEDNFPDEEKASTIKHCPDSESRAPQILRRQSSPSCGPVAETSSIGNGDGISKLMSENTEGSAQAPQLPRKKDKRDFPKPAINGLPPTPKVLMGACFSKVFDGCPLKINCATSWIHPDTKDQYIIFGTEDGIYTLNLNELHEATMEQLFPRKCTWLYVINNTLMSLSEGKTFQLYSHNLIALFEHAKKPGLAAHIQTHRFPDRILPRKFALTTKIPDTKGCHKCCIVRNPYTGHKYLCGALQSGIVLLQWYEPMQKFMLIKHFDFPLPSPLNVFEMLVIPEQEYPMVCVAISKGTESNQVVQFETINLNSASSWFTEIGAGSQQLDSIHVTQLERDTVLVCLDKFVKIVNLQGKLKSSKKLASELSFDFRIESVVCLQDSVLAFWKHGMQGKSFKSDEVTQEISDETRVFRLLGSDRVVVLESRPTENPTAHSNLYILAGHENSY
# T5 sequence (Q6P5Z2 whole entry): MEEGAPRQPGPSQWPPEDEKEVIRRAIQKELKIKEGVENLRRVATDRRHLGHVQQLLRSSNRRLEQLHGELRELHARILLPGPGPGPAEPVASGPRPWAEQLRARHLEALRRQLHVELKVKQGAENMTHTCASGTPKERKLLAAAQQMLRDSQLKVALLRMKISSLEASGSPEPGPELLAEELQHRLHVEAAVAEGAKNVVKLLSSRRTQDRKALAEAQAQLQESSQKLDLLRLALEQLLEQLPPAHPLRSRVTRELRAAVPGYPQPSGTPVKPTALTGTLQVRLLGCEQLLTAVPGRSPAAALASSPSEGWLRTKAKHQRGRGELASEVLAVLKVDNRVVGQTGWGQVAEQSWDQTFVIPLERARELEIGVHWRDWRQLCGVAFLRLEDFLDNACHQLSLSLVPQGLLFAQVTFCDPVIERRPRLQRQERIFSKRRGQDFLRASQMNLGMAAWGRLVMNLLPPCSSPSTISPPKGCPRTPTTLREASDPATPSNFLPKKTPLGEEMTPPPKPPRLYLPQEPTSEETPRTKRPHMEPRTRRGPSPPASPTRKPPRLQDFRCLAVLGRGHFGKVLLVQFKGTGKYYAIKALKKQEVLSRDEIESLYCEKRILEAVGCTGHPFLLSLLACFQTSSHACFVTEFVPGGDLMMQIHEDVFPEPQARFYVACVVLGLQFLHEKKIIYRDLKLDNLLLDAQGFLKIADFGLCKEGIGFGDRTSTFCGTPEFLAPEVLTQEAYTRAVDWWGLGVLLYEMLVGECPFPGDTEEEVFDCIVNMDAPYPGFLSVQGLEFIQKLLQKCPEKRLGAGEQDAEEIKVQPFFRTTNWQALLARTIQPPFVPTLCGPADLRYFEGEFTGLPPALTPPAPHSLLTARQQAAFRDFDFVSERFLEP
# T8 sequence (Q9BYT3 whole entry): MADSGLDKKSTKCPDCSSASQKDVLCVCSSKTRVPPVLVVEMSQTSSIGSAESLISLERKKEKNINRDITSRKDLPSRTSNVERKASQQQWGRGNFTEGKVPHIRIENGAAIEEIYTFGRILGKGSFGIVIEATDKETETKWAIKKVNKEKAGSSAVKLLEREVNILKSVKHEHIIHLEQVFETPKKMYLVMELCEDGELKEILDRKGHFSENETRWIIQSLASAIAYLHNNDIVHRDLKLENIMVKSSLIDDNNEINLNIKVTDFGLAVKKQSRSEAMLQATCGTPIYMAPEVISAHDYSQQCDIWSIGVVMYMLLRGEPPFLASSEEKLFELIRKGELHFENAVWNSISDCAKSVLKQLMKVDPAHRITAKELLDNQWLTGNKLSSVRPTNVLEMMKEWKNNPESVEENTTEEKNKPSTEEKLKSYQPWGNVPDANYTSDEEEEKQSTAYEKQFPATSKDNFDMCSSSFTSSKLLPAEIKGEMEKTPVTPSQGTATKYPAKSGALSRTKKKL
# T6 sequence (P80192 whole entry): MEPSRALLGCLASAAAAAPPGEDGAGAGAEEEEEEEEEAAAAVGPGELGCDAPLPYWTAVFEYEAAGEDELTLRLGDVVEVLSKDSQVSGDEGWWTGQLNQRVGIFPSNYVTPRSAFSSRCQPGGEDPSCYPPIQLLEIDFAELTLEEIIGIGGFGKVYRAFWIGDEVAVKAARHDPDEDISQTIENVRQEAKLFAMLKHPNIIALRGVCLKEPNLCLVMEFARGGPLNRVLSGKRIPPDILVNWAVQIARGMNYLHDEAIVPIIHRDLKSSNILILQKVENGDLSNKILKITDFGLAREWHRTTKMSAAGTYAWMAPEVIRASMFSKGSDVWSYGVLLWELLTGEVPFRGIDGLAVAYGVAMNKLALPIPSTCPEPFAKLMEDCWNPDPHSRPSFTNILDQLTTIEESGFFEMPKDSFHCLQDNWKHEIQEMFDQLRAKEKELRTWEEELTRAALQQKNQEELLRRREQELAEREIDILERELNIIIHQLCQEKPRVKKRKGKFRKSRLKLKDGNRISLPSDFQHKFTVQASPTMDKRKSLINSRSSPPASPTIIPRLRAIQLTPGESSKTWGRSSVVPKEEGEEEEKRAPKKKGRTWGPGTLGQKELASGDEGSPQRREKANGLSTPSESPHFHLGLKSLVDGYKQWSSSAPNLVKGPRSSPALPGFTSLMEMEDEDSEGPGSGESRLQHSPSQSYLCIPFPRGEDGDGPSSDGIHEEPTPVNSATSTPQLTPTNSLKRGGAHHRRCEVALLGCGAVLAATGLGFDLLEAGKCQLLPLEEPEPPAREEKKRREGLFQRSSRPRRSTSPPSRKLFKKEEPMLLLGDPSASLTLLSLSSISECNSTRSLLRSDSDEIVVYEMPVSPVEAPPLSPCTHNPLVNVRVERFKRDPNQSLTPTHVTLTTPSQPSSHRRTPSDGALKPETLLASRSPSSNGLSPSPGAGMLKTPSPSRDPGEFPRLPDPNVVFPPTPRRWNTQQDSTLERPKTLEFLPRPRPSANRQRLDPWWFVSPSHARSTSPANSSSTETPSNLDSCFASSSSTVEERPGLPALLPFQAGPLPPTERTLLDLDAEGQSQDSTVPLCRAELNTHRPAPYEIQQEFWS
# T9 sequence (P06493 whole entry): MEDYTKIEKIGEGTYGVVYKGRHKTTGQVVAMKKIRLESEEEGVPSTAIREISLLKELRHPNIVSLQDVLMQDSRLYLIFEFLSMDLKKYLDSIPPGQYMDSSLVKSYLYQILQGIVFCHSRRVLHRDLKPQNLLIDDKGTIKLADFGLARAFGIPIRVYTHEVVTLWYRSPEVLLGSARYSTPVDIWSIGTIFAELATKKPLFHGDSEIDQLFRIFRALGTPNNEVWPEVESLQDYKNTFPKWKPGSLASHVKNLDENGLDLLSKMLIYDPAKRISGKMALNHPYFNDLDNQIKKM
# T9 sequence (P24864 whole entry partner): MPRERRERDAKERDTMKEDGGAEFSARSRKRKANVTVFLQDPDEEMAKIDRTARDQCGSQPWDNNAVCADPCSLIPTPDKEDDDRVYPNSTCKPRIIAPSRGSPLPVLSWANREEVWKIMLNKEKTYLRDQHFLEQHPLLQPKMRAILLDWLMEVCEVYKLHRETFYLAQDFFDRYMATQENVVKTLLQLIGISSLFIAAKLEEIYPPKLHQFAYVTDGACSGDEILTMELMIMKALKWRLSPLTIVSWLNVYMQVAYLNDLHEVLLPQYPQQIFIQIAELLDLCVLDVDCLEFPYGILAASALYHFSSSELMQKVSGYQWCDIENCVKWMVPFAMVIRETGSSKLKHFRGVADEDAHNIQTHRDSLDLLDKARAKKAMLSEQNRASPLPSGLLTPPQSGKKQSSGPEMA
SMILES,residual kinase activity (TTBK2; 0.3 µM),residual kinase activity (HCK; 0.3 µM),residual kinase activity (CAMK2A; 0.3 µM),residual kinase activity (MAP4K5; 0.3 µM),residual kinase activity (PKN3; 0.3 µM),residual kinase activity (MAP3K9; 0.3 µM),residual kinase activity (MEK5; 0.3 µM),residual kinase activity (STK33; 0.3 µM),residual kinase activity (CDK1/CycE1; 0.3 µM),residual kinase activity (BRSK2; 0.3 µM),residual kinase activity (EEF2K; 0.3 µM),also measured
COc1ccnc2[nH]cc(-c3cc(N)nc(N)c3)c12 [meriolin 16],91 % of control,81 % of control,81 % of control,52 % of control,74 % of control,80 % of control,31 % of control,43 % of control,8 % of control,92 % of control,89 % of control,residual kinase activity (TTBK2; 0.03 µM): 96 % of control; residual kinase activity (HCK; 0.03 µM): 106 % of control; residual kinase activity (CAMK2A; 0.03 µM): 103 % of control; residual kinase activity (MAP4K5; 0.03 µM): 87 % of control; residual kinase activity (PKN3; 0.03 µM): 83 % of control; residual kinase activity (MAP3K9; 0.03 µM): 95 % of control; residual kinase activity (MEK5; 0.03 µM): 35 % of control; residual kinase activity (STK33; 0.03 µM): 73 % of control; residual kinase activity (CDK1/CycE1; 0.03 µM): 42 % of control; residual kinase activity (BRSK2; 0.03 µM): 111 % of control; residual kinase activity (EEF2K; 0.03 µM): 96 % of control
c1ccc(CNc2cc(-c3c[nH]c4ncccc34)ccn2)cc1 [meriolin 36],93 % of control,75 % of control,26 % of control,3 % of control,27 % of control,57 % of control,30 % of control,41 % of control,2 % of control,112 % of control,84 % of control,residual kinase activity (TTBK2; 3 µM): 56 % of control; residual kinase activity (HCK; 3 µM): 25 % of control; residual kinase activity (CAMK2A; 3 µM): 2 % of control; residual kinase activity (MAP4K5; 3 µM): 0 % of control; residual kinase activity (PKN3; 3 µM): 3 % of control; residual kinase activity (MAP3K9; 3 µM): 12 % of control; residual kinase activity (MEK5; 3 µM): 12 % of control; residual kinase activity (STK33; 3 µM): 14 % of control; residual kinase activity (CDK1/CycE1; 3 µM): 0 % of control; residual kinase activity (BRSK2; 3 µM): 61 % of control; residual kinase activity (EEF2K; 3 µM): 97 % of control
